These results are taken from ChEMBL document CHEMBL4425197, “Discovery of a new type of scaffold for the creation of novel tyrosinase inhibitors” (Bioorg Med Chem, 2016).

Structures are written as SMILES. Activity calls are given as the source filed them. The calls are words filed in the database; no cut-off is given here.

The target of assay [1] is T1, Tyrosinase (Agaricus bisporus, UniProt O42713).
T1 sequence (O42713 whole entry): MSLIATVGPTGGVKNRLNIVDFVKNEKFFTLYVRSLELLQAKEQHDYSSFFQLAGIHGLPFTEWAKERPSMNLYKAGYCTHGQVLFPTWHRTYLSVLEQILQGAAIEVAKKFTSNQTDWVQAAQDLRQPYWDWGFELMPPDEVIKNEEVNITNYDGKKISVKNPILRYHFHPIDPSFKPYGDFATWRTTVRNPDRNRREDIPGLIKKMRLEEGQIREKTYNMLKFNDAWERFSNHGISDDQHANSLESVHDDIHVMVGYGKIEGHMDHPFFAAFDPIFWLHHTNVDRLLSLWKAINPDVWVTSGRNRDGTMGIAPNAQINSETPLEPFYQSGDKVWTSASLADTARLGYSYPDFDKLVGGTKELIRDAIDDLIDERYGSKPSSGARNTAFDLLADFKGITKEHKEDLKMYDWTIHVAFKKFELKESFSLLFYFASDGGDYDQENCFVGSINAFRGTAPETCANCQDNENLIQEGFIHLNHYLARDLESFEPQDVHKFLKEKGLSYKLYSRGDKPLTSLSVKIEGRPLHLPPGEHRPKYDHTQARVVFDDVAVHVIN
The experiment in a line: Inhibition of mushroom tyrosinase using L-tyrosine as substrate assessed as dopachrome formation preincubated for 10 mins followed by protein addition measured after 20 mins by microplate reader analysis.

Assay [2] deals with T2, Tyrosinase (Agaricus bisporus) (UniProt O42713).
T2 sequence (whole entry): T1 sequence (O42713 whole entry)
The experiment in a line: Ratio of IC50 for mushroom tyrosinase diphenolase activity using L-DOPA as substrate to IC50 for mushroom tyrosinase monophenolase activity using L-tyrosine as substrate.

In assay [3] the target is T1, Tyrosinase. Description: (§1) Inhibition of mushroom tyrosinase monophenolase activity using L-tyrosine as substrate measured every 60 s for 25 times.
Assay [4] concerns the target T1, Tyrosinase. The experiment in a line: (§2) Inhibition of mushroom tyrosinase diphenolase activity using L-DOPA as substrate measured every 30 s for 25 times.
The target of assay [5] is T1, Tyrosinase. The experiment in a line: Inhibition of mushroom tyrosinase using L-DOPA as substrate preincubated for 5 mins followed by substrate addition measured for 2 mins by spectrophotometric analysis.
Assay [6] concerns the target T2, Tyrosinase (Agaricus bisporus). Described as §1.
For assay [7] the target is unchanged. Description: Potency index, ratio of IC50 for benzoic acid to IC50 for test compound for inhibition of mushroom tyrosinase monophenolase activity.
Assay [8] shares this target. The experiment in a line: Non-competitive inhibition of mushroom tyrosinase monophenolase activity using L-tyrosine as substrate at 5 to 10 uM measured every 60 s for 25 times by Lineweaver-Burk plot analysis.
For assay [9] the target is unchanged. Description: Mixed-type inhibition of mushroom tyrosinase diphenolase activity using L-DOPA as substrate at 3 to 30 uM measured every 30 s for 25 times by Lineweaver-Burk plot analysis.
The target is the same in assay [10]. The description is as §2.

Consider `Nc1ccc(C(=O)O)cc1` [AMINOBENZOIC ACID], for which the IC50 on Tyrosinase [1] was found to be 3.8 µM.

As for `O=C(O)c1ccccc1` [BENZOIC ACID], the Ratio IC50 in [2] was determined as 3.66. Further, the IC50 is 224 µM on Tyrosinase [3], 822 µM against Tyrosinase [4] and 710 µM against Tyrosinase [5].

For `O=C(O)c1cccc(-c2ccccc2)c1`, the Ratio IC50 was found to be 5.21 in assay [2] and 30 in assay [7]. Moreover, the inhibition entry in [6] is “Dose-dependent effect”. For the same compound, the IC50 worked out at 6.97 µM against Tyrosinase [3] and 36.3 µM on Tyrosinase [4]. Further, the inhibition result in assay [8] and in [9] was “Active” in each case.

As to `CCOC(=O)c1cccc(-c2ccccc2)c1`, the inhibition result in [6] and in assay [10] was “inactive” each time.

Consider `O=C(O)c1ccccc1-c1ccccc1`, for which the IC50 on Tyrosinase [3] and on Tyrosinase [4] was more than 1000 µM throughout.

Take `COc1ccc(C(=O)O)cc1` [p-ANISIC ACID]: the IC50 at Tyrosinase [1] was 420 µM.

On to `O=C(O)c1ccc(-c2ccccc2)cc1`, for which the Ratio IC50 in assay [2] turned out to be 3.42. In assay [6], the inhibition entry is “Dose-dependent effect”. Moreover, the IC50 stood at 63.2 µM on Tyrosinase [3] and 216 µM on Tyrosinase [4].

The IC50 is the concentration at which inhibition is half-maximal.
